Assay results: ChEMBL document CHEMBL6071193, “Structure-Activity Relationship of Potent, Selective, and Orally Bioavailable Molecular Glue Degraders of CK1α” (ACS Med Chem Lett, 2024)
Converted amounts (≈) assume the structure as drawn. The source made the active and inactive calls. The calls are words filed in the database; no cut-off is given here.

system: not listed separately; experiment: Stability in mouse plasma assessed as half-life at 10 uM measured upto 48 hrs by UPLC-MS/MS analysis; type: ADME, cell-free; details: 48 h, 10 µM

SMILES | t1/2
O=C1CCC(N2Cc3cc(NC(=O)c4ccc(F)cc4)ccc3C2=O)C(=O)N1 (stereo unspecified) | 9 h
Cc1cccc(C(=O)Nc2ccc3c(c2)CN(C2CCC(=O)NC2=O)C3=O)c1 (stereo unspecified) | 9 h

biological target: T1, Cereblon/Casein kinase I alpha (Homo sapiens, UniProt P48729+Q96SW2); experiment: PROTAC activity at CRBN/HiBiT-tagged CK1alpha in HEK293 cells transfected with LgBiT expression vector assessed as induction of CK1alpha degradation by measuring maximal efficacy at 10 uM measured after 24 hrs by luminescence based GloMax Discover assay relative to control; type: cell-based; details: not given
Target sequence in this assay (P48729 2-337 limits assumed): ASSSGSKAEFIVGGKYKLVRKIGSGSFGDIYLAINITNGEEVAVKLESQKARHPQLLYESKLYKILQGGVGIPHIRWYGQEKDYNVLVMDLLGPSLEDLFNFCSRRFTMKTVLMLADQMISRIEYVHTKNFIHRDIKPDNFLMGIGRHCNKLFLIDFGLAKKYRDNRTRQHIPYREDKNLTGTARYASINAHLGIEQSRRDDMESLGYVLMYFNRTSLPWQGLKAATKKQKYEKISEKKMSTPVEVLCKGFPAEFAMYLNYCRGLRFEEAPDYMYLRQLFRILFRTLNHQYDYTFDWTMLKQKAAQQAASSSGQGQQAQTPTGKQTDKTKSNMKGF
Target sequence in this assay (Q96SW2 whole entry partner): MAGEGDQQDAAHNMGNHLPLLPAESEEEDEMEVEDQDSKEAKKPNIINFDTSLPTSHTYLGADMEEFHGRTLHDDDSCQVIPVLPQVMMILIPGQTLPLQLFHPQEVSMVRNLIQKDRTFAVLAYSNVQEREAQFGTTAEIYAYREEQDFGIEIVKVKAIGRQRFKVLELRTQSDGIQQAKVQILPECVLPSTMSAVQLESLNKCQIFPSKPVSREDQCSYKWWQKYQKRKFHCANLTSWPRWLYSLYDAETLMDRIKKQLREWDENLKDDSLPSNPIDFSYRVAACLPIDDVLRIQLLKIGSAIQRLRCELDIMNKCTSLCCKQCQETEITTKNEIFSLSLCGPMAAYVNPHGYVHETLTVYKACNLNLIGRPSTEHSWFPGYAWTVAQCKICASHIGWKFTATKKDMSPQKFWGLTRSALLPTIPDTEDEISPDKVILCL

SMILES | Emax
O=C1CCC(N2Cc3cc(NC(=O)c4ccc(F)cc4)ccc3C2=O)C(=O)N1 (stereo unspecified) | 88%
Cc1cccc(C(=O)Nc2ccc3c(c2)CN(C2CCC(=O)NC2=O)C3=O)c1 (stereo unspecified) | 88%

system: not listed separately; experiment: Metabolic stability in mouse liver microsomes assessed as half-life at 10 uM measured upto 4 hrs in presence of NADPH by UPLC-MS/MS analysis; type: ADME, Microsome; details: microsomes, 4 h, 10 µM

SMILES | t1/2
O=C1CCC(N2Cc3cc(NC(=O)c4ccc(F)cc4)ccc3C2=O)C(=O)N1 (stereo unspecified) | > 10 h
Cc1cccc(C(=O)Nc2ccc3c(c2)CN(C2CCC(=O)NC2=O)C3=O)c1 (stereo unspecified) | 5.6 h

system: Jurkat; experiment: Cytotoxicity against human Jurkat cells expressing HiBiT-tagged IKZF1 at 0.0001 to 100 uM measured over 24 hrs by Cell-Titer Glo assay; type: toxicity, cell-based; details: dose 0.0001-100 µM

SMILES | Activity
O=C1CCC(N2Cc3cc(NC(=O)c4ccc(F)cc4)ccc3C2=O)C(=O)N1 (stereo unspecified) | Non-Toxic
Cc1cccc(C(=O)Nc2ccc3c(c2)CN(C2CCC(=O)NC2=O)C3=O)c1 (stereo unspecified) | Non-Toxic

system: MOLM-13; experiment: Antiproliferative activity against human MOLM-13 cells incubated for 72 hrs by Cell-Titer Glo assay; type: functional, cell-based; details: MOLM-13, 72 h

SMILES | IC50
O=C1CCC(N2Cc3cc(NC(=O)c4ccc(F)cc4)ccc3C2=O)C(=O)N1 (stereo unspecified) | 82 nM

system: not listed separately; experiment: Stability in human plasma assessed as half-life at 10 uM measured upto 48 hrs by UPLC-MS/MS analysis; type: ADME, cell-free; details: not given

SMILES | t1/2
O=C1CCC(N2Cc3cc(NC(=O)c4ccc(F)cc4)ccc3C2=O)C(=O)N1 (stereo unspecified) | 10 h
Cc1cccc(C(=O)Nc2ccc3c(c2)CN(C2CCC(=O)NC2=O)C3=O)c1 (stereo unspecified) | 5.7 h

biological target: T2, Cereblon/Ikaros (Homo sapiens, UniProt Q96SW2+Q13422); experiment: PROTAC activity at CRBN/HiBiT-tagged IKZF1 in human Jurkat cells transfected with LgBiT expression vector assessed as induction of IKZF1 degradation by measuring maximal efficacy at 10 uM measured after 24 hrs by luminescence based GloMax Discover assay relative to control; type: cell-based; details: not given
T2 sequence (Q96SW2 whole entry): as the sequence (Q96SW2 whole entry partner) above
T2 sequence (Q13422 whole entry): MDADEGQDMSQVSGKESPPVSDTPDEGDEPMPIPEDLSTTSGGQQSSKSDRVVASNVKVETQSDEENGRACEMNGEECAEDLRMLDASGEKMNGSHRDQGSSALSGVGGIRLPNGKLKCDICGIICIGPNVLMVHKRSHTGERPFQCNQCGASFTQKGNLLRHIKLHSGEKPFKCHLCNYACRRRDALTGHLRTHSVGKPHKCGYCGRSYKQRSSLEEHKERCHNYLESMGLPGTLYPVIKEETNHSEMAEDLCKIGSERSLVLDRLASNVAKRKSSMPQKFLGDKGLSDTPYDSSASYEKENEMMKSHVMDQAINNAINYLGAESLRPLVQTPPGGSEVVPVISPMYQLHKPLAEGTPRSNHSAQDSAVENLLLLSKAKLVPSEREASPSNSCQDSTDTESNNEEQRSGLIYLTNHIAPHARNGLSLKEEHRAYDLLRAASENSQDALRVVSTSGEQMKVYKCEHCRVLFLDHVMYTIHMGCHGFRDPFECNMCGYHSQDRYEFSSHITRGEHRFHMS

SMILES | Emax
O=C1CCC(N2Cc3cc(NC(=O)c4ccc(F)cc4)ccc3C2=O)C(=O)N1 (stereo unspecified) | 12%

system: not listed separately; experiment: Apparent permeability across basolateral to apical side in MDCK-II cells at 10 micromol/L incubated for 1 hrs by UPLC/MS analysis; type: ADME, cell-based, Canis lupus familiaris; details: dog, mdck-ii, 1 h, 10 µM, dose 10 µmol/L

SMILES | Papp
O=C1CCC(N2Cc3cc(NC(=O)c4ccc(F)cc4)ccc3C2=O)C(=O)N1 (stereo unspecified) | 0.5 ×10⁻⁶ cm/s
Cc1cccc(C(=O)Nc2ccc3c(c2)CN(C2CCC(=O)NC2=O)C3=O)c1 (stereo unspecified) | 2.6 ×10⁻⁶ cm/s

biological target: T1, Cereblon/Casein kinase I alpha; experiment: PROTAC activity at CRBN/HiBiT-tagged CK1alpha in HEK293 cells transfected with LgBiT expression vector assessed as induction of CK1alpha degradation measured after 24 hrs by luminescence based GloMax Discover assay; type: cell-based; details: not given
Target sequence in this assay (P48729 whole entry): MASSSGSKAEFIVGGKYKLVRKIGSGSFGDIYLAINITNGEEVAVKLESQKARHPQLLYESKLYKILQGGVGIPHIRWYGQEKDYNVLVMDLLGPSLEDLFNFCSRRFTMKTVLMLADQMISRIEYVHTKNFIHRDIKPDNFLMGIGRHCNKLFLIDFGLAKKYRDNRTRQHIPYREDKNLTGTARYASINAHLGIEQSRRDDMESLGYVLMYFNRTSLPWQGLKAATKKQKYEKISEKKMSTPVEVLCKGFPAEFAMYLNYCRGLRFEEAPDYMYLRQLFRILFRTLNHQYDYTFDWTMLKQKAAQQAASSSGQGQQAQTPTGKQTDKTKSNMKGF
Target sequence in this assay (Q96SW2 whole entry): as the sequence (Q96SW2 whole entry partner) above

SMILES | DC50
O=C1CCC(N2Cc3cc(NC(=O)c4ccc(F)cc4)ccc3C2=O)C(=O)N1 (stereo unspecified) | 10 nM
Cc1cccc(C(=O)Nc2ccc3c(c2)CN(C2CCC(=O)NC2=O)C3=O)c1 (stereo unspecified) | 8 nM

biological target: T1, Cereblon/Casein kinase I alpha; experiment: PROTAC activity at CRBN/HiBiT-tagged CK1alpha in HEK293 cells transfected with LgBiT expression vector assessed as induction of CK1alpha degradation by measuring degradation rate at 10 uM measured after 24 hrs by luminescence based GloMax Discover assay; type: cell-based; details: not given
Target sequence in this assay (P48729 2-337 limits assumed): as the sequence (P48729 2-337 limits assumed) above
Target sequence in this assay (Q96SW2 whole entry partner): as the sequence (Q96SW2 whole entry partner) above

SMILES | Activity
O=C1CCC(N2Cc3cc(NC(=O)c4ccc(F)cc4)ccc3C2=O)C(=O)N1 (stereo unspecified) | 1.2 h⁻¹
Cc1cccc(C(=O)Nc2ccc3c(c2)CN(C2CCC(=O)NC2=O)C3=O)c1 (stereo unspecified) | 1.8 h⁻¹

biological target: T1, Cereblon/Casein kinase I alpha; experiment: (§1) Binding affinity to Halo-tagged CRBN (unknown origin)/HiBiT-tagged CK1alpha in HEK293 cells transfected with LgBiT expression vector assessed as ternary complex formation by measuring fold increase in NanoBRET signal preincubated with MG132 for 30 mins followed by compound addition and measured after 2 hrs by NanoBRET assay relative to control; type: cell-based; details: not given
Target sequence in this assay (P48729 2-337 limits assumed): as the sequence (P48729 2-337 limits assumed) above
Target sequence in this assay (Q96SW2 whole entry partner): as the sequence (Q96SW2 whole entry partner) above

SMILES | fold change (FC)
O=C1CCC(N2Cc3cc(NC(=O)c4ccc(F)cc4)ccc3C2=O)C(=O)N1 (stereo unspecified) | 11

biological target: T2, Cereblon/Ikaros; experiment: as §1, with “IKZF1” for “CK1alpha”, “human Jurkat” for “HEK293”; type: cell-based; details: not given

SMILES | fold change (FC)
O=C1CCC(N2Cc3cc(NC(=O)c4ccc(F)cc4)ccc3C2=O)C(=O)N1 (stereo unspecified) | 4

biological target: Protein cereblon/Eukaryotic peptide chain release factor GTP-binding subunit ERF3A (Homo sapiens) (UniProt Q96SW2+P15170); experiment: PROTAC activity at CRBN (unknown origin)/human HiBiT-tagged GSPT1 transfected in HEK293 cells assessed as induction of GSPT1 degradation measured after 24 hrs by Nano-Glo reagent based luminescence analysis; type: cell-based; details: not given
Sequence (P15170 whole entry, looked up): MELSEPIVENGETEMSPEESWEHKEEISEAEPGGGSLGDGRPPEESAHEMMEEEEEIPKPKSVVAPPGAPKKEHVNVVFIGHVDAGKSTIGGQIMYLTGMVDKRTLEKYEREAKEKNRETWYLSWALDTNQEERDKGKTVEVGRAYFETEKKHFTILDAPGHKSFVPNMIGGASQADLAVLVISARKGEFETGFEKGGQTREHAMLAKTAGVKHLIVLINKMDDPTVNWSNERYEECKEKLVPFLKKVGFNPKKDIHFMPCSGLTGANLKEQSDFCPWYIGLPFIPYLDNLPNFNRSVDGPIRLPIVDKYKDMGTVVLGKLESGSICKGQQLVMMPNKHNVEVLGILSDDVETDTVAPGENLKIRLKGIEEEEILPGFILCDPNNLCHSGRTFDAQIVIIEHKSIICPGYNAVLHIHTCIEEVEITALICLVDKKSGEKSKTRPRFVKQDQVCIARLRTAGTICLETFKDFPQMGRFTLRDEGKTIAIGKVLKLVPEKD
Sequence (Q96SW2 whole entry, looked up): as the sequence (Q96SW2 whole entry partner) above

SMILES | Activity
O=C1CCC(N2Cc3cc(NC(=O)c4ccc(F)cc4)ccc3C2=O)C(=O)N1 (stereo unspecified) | inactive
Cc1cccc(C(=O)Nc2ccc3c(c2)CN(C2CCC(=O)NC2=O)C3=O)c1 (stereo unspecified) | inactive

system: not listed separately; experiment: Solubility of compound at pH 7.4 incubated for 18 hrs by UV-spectra analysis; type: physicochemical; details: buffer, pH 7.4, 18 h

SMILES | solubility
O=C1CCC(N2Cc3cc(NC(=O)c4ccc(F)cc4)ccc3C2=O)C(=O)N1 (stereo unspecified) | 30 µM (≈ 11.4 µg/mL)
Cc1cccc(C(=O)Nc2ccc3c(c2)CN(C2CCC(=O)NC2=O)C3=O)c1 (stereo unspecified) | 10 µM (≈ 3.77 µg/mL)

biological target: Cereblon/Ikaros (Homo sapiens, UniProt Q13422+Q96SW2); experiment: Binding affinity to Halo-tagged CRBN (unknown origin)/HiBiT-tagged IKZF1 in human Jurkat cells transfected with LgBiT expression vector assessed as ternary complex formation preincubated with MG132 for 30 mins followed by compound addition and measured after 2 hrs by NanoBRET assay; type: cell-based; details: not given
Sequence (Q96SW2 whole entry): as the sequence (Q96SW2 whole entry partner) above
Sequence (Q13422 whole entry): as the sequence (Q13422 whole entry) above

SMILES | EC50
O=C1CCC(N2Cc3cc(NC(=O)c4ccc(F)cc4)ccc3C2=O)C(=O)N1 (stereo unspecified) | 650 nM

system: HEK293; experiment: Cytotoxicity against HEK293 cells expressing HiBiT-tagged CK1alpha at 0.0001 to 100 uM measured over 24 hrs by Cell-Titer Glo assay; type: toxicity, cell-based; details: human, hek293, 24 h, dose 0.0001-100 µM

SMILES | Activity
O=C1CCC(N2Cc3cc(NC(=O)c4ccc(F)cc4)ccc3C2=O)C(=O)N1 (stereo unspecified) | Non-Toxic
Cc1cccc(C(=O)Nc2ccc3c(c2)CN(C2CCC(=O)NC2=O)C3=O)c1 (stereo unspecified) | Non-Toxic

biological target: T1, Cereblon/Casein kinase I alpha; experiment: Binding affinity to Halo-tagged CRBN (unknown origin)/HiBiT-tagged CK1alpha in HEK293 cells transfected with LgBiT expression vector assessed as ternary complex formation preincubated with MG132 for 30 mins followed by compound addition and measured after 2 hrs by NanoBRET assay; type: cell-based; details: not given
Target sequence in this assay (P48729 whole entry): as the sequence (P48729 whole entry) above
Target sequence in this assay (Q96SW2 whole entry): as the sequence (Q96SW2 whole entry partner) above

SMILES | EC50
O=C1CCC(N2Cc3cc(NC(=O)c4ccc(F)cc4)ccc3C2=O)C(=O)N1 (stereo unspecified) | 178 nM
Cc1cccc(C(=O)Nc2ccc3c(c2)CN(C2CCC(=O)NC2=O)C3=O)c1 (stereo unspecified) | 100 nM

biological target: T2, Cereblon/Ikaros; experiment: PROTAC activity at CRBN/HiBiT-tagged IKZF1 in human Jurkat cells transfected with LgBiT expression vector assessed as induction of IKZF1 degradation measured after 24 hrs by luminescence based GloMax Discover assay; type: cell-based; details: not given

SMILES | DC50 | Activity
O=C1CCC(N2Cc3cc(NC(=O)c4ccc(F)cc4)ccc3C2=O)C(=O)N1 (stereo unspecified) | > 10000 nM | 
Cc1cccc(C(=O)Nc2ccc3c(c2)CN(C2CCC(=O)NC2=O)C3=O)c1 (stereo unspecified) |  | inactive

system: not listed separately; experiment: Apparent permeability across apical to basolateral side in MDCK-II cells at 10 micromol/L incubated for 1 hrs by UPLC/MS analysis; type: ADME, cell-based, Canis lupus familiaris; details: dog, mdck-ii, 1 h, 10 µM, dose 10 µmol/L

SMILES | Papp
O=C1CCC(N2Cc3cc(NC(=O)c4ccc(F)cc4)ccc3C2=O)C(=O)N1 (stereo unspecified) | 0.2 ×10⁻⁶ cm/s
Cc1cccc(C(=O)Nc2ccc3c(c2)CN(C2CCC(=O)NC2=O)C3=O)c1 (stereo unspecified) | 2.5 ×10⁻⁶ cm/s

system: not listed separately; experiment: Metabolic stability in pooled human liver microsomes assessed as half-life at 10 uM measured upto 4 hrs in presence of NADPH by UPLC-MS/MS analysis; type: ADME, Microsome; details: not given

SMILES | t1/2
O=C1CCC(N2Cc3cc(NC(=O)c4ccc(F)cc4)ccc3C2=O)C(=O)N1 (stereo unspecified) | > 10 h
Cc1cccc(C(=O)Nc2ccc3c(c2)CN(C2CCC(=O)NC2=O)C3=O)c1 (stereo unspecified) | 6.8 h

biological target: Protein cereblon/DNA damage-binding protein 1 (Homo sapiens) (UniProt Q96SW2+Q16531); experiment: Binding affinity to 6-His tagged CRBN/DDB1 (unknown origin) incubated for 1 hrs in presence of Cy5-O-Len probe by fluorescence polarization assay; type: protein assay; details: not given
Sequence (Q16531 2-1140 partner limits assumed): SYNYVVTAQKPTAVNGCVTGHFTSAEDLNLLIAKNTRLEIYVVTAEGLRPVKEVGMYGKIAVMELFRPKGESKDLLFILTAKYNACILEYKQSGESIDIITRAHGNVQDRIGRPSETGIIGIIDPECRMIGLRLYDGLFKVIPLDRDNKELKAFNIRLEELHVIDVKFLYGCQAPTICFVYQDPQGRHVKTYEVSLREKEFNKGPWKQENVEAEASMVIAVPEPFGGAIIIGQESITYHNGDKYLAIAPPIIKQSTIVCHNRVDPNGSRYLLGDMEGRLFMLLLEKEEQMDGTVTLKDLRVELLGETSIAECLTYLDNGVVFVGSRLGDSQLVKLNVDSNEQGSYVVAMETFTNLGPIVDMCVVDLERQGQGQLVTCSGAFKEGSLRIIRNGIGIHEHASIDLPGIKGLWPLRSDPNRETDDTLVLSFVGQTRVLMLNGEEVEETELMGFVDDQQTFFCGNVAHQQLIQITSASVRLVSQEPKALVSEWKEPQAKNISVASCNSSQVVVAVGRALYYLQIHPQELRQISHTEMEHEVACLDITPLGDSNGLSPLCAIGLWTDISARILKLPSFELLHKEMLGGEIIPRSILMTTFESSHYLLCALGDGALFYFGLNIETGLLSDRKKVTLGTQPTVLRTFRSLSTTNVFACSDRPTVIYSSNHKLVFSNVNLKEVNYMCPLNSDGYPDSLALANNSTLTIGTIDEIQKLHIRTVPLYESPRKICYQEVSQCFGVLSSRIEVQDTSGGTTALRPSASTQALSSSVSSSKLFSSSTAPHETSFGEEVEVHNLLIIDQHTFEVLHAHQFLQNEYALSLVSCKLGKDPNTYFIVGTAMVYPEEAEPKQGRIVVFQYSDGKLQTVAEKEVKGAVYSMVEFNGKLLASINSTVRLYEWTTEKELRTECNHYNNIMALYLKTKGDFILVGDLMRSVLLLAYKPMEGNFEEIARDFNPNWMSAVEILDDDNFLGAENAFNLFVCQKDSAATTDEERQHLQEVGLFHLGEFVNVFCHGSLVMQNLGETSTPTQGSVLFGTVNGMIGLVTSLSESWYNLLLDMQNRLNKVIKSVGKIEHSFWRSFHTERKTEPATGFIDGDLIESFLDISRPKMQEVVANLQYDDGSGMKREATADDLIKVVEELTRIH
Sequence (Q96SW2 whole entry): as the sequence (Q96SW2 whole entry partner) above

SMILES | Activity
O=C1CCC(N2Cc3cc(NC(=O)c4ccc(F)cc4)ccc3C2=O)C(=O)N1 (stereo unspecified) | 2.1 µM
